Experimental data as given in patent US20240300951A1, “Pyrazolopyridinone Compounds” (BeiGene Ltd., priority 2021, published 2024).

Tests used:
DGKζ = molecular target: T1, DGKζ (Homo sapiens, UniProt Q13574); test: Biochemical DGK IC50 assay, DGKζ ADP-Glo assay; conditions: full length DGKζ 0.5 nM, ATP 140 μM, DAG 80 μM
T1 construct: His (N); TEV cleavage site (N); made in house; host or cells: Sf9 insect cells (baculovirus, Bac-to-Bac)
Experimental: (§1) Enzymatic reactions of DGKζ, DGKα and DGKδ were performed using ADP-Glo assay with lipid micelle substrate. […] Full length DGKα (D21-10BG, SignalChem) and full length DGKδ (D23-10G, SignalChem) were purchased. Lipid micelle was prepared by dissolving DAG (Sigma, 317505-10MG) and PS (Sigma, P7769-100MG) with chloroform which was furtherly removed by rotary evaporation. The resulted product was resuspended in buffer containing 25 mM HEPES pH 7.0, 0.5 mM EDTA and 160 mM Octyl β-D glucopyranoside by vigorous mixing and ultrasonic (IID, Scientz)
(§2) The ranges of compounds final concentration were 1.55-10000 nM or 23.3-150000 nM. 3 μL 2× enzyme solution was added to wells.
Human His-TEV-DGK-zeta-pFastBac1 and human baculovirus samples was generated using the Bac-to-Bac baculovirus expression system (Invitrogen) according to the manufacturer's protocol. The DNA used for expression of DGK-zeta, have SEQ ID Nos: 1. Baculovirus amplification was achieved using infected SF9 cells at 1:2000 virus/cells ratios, and grown for 96 hours at 27° C. post-transfected.
The expression scaled up for each protein was carried out in the […] from CORNING. 4 L of 3×10^6 cells/mL Sf9 cells (Expression System, Invitrogen) grown in SF900™ II SFM insect medium (Expression System) was infected with virus stock at 1:200 virus/cells ratio, and grown for 48 hours at 27° C. post-transfection. The infected cell culture was harvested by centrifugation at 6000 rpm for 15 min 4° C. in a SORVALL LYNX6000 centrifuge. The cell pellets were stored at −80° C.
Full length human DGK produced as described above, was purified from Sf9 baculovirus-infected insect cell paste. The cells were lysed using sonication method, and the lysates were clarified by centrifugation.

DGKα = molecular target: T2, DGKα (Homo sapiens, UniProt P23743); test: Biochemical DGK IC50 assay, DGKα ADP-Glo assay; conditions: full length DGKα 7.5 nM, ATP 140 μM, DAG 80 μM
T2 construct: Full length DGKα (D21-10BG, SignalChem); purchased SignalChem D21-10BG
Experimental: as §1, §2

T1 sequence (Q13574 1-929 isoform Q13574-4): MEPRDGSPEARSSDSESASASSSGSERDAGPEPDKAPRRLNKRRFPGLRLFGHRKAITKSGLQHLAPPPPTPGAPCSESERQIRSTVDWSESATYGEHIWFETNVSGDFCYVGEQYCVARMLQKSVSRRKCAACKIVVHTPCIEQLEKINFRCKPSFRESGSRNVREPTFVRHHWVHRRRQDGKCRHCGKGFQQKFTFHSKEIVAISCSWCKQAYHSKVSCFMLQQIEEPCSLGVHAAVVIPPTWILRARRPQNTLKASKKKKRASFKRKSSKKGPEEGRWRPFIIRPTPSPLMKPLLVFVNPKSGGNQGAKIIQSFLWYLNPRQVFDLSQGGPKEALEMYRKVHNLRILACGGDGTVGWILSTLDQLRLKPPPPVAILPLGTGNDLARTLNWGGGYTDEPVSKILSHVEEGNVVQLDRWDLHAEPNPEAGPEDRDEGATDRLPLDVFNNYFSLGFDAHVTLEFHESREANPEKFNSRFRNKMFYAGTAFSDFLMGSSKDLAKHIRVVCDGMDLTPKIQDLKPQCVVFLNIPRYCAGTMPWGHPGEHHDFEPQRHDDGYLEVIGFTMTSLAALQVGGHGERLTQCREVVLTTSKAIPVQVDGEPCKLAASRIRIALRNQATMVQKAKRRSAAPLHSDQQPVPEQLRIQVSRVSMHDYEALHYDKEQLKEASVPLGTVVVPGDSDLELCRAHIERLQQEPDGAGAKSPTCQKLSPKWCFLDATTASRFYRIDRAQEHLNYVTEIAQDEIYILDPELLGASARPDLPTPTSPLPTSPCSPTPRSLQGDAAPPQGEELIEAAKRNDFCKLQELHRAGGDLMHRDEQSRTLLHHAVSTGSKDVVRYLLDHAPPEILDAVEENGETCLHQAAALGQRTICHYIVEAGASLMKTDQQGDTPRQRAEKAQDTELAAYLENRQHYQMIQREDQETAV
T2 sequence (P23743 whole entry): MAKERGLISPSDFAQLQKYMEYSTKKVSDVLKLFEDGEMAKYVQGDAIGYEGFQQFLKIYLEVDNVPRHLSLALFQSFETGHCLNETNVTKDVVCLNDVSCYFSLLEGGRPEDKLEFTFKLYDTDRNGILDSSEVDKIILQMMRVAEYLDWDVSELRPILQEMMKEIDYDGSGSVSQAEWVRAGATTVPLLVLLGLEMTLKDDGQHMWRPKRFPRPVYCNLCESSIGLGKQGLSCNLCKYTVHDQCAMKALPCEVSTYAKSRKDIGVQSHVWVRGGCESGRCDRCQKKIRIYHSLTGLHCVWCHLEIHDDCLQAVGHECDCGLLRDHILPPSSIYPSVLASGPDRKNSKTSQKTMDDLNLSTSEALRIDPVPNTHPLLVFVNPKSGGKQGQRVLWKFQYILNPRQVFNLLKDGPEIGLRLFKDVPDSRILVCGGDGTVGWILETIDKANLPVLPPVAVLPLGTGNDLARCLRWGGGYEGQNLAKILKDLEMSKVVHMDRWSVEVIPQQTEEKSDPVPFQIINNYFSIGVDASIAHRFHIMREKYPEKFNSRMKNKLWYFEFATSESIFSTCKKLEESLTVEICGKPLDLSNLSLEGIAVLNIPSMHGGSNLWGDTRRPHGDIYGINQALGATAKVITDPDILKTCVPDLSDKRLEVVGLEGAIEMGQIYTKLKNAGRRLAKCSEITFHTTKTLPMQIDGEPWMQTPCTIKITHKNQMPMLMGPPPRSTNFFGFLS

CC[C@H]1CN(C2CCOc3ccccc32)[C@H](CC)CN1c1cc(=O)n(C)c2cn(CC#N)nc12 (single isomer, unassigned) [Compound A150b]
IC50 (DGKζ): 543 nM
IC50 (DGKα): 82.5 nM

Cc1cnc2ccc([C@H](C)N3C[C@H](C)N(c4cc(=O)n(C)c5cn(CC#N)nc45)C[C@H]3C)cc2n1 (single isomer, unassigned) [Compound A269d]
IC50 (DGKζ): 21 nM
IC50 (DGKα): 51700 nM

CC[C@H]1CN(C(C)c2ccc3nccnc3c2)[C@H](CC)CN1c1cc(=O)n(C(C)C)c2cn(CC#N)nc12 (single isomer, unassigned) [Compound A190a]
IC50 (DGKζ): 172 nM
IC50 (DGKα): > 10000 nM

CC[C@@H]1CN(c2cc(=O)[nH]c3cn(CC#N)nc23)[C@@H](C)CN1C(C)c1ccc2nccnc2c1 (single isomer, unassigned) [Compound A177b]
IC50 (DGKζ): 3600 nM
IC50 (DGKα): > 10000 nM

Cc1c2c(nn1CC#N)c(N1C[C@@H](C)N(C(C)c3ccc(F)cc3C(F)(F)F)C[C@@H]1C)nc(=O)n2C (single isomer, unassigned) [Compound A267b]
IC50 (DGKζ): 70 nM
IC50 (DGKα): > 150000 nM

CC[C@H]1CN(C(C)c2ccc(F)cc2C(F)F)[C@H](CC)CN1c1cc(=O)n(C)c2cn(CC#N)nc12 (single isomer, unassigned) [Compound A172a]
IC50 (DGKζ): 4320 nM
IC50 (DGKα): > 10000 nM

CC[C@H]1CN(C2CCCc3ccccc32)[C@H](CC)CN1c1cc(=O)n(C)c2cn(CC#N)nc12 (single isomer, unassigned) [Compound A146b]
IC50 (DGKζ): 4690 nM
IC50 (DGKα): > 10000 nM

CC[C@@H]1CN(c2c(F)c(=O)[nH]c3cn(CC#N)nc23)[C@@H](C)CN1C(C)c1ccc2nccnc2c1 (single isomer, unassigned) [Compound A194b]
IC50 (DGKζ): 1190 nM
IC50 (DGKα): 5090 nM

CC[C@@H]1CN(c2c(Cl)c(=O)n(C)c3cn(CC#N)nc23)CCN1C(C)c1ccc2nccnc2c1 (single isomer, unassigned) [Compound A162a]
IC50 (DGKζ): 4480 nM
IC50 (DGKα): > 10000 nM

CC[C@H]1CN(C(C)c2nc(Cl)cn2CC)[C@H](CC)CN1c1cc(=O)n(C)c2cn(CC#N)nc12 (single isomer, unassigned) [Compound A191b]
IC50 (DGKζ): 1180 nM

7-((2S,5R)-4-(1-(1-(2,2-difluoroethyl)-1H-pyrazol-5-yl)ethyl)-2,5-diethylpiperazin-1-yl)-4-methyl-2,4-dihydro-5H-pyrazolo[4,3-b]pyridin-5-one [Compound A228]
IC50 (DGKζ): 9200 nM
IC50 (DGKα): > 10000 nM

CC[C@H]1CN(C(C)c2ncccc2OC)[C@H](CC)CN1c1cc(=O)n(C)c2cn(CC#N)nc12 (single isomer, unassigned) [Compound A92b]
IC50 (DGKζ): 2840 nM

CC(c1ccc2c(c1)OCC(C)(C)O2)N1C[C@H](C)N(c2cc(=O)n(C)c3cn(CC#N)nc23)C[C@H]1C (single isomer, unassigned) [Compound A46c]
IC50 (DGKζ): 135 nM
IC50 (DGKα): 3340 nM

CC[C@H]1CN(C(C)c2ccc(C3CC3)cc2F)[C@H](CC)CN1c1cc(=O)n(C)c2cn(CC#N)nc12 (single isomer, unassigned) [Compound A72a]
IC50 (DGKζ): 850 nM
IC50 (DGKα): 1200 nM

CC[C@H]1CN(C(C)c2cccc(C)c2C(F)(F)F)[C@H](CC)CN1c1cc(=O)n(C)c2cn(CC#N)nc12 (single isomer, unassigned) [Compound A110b]
IC50 (DGKζ): 1230 nM
IC50 (DGKα): 9030 nM

CC[C@H]1CN(C(C)c2ccc3nc(OC)cnc3c2)[C@H](CC)CN1c1cc(=O)n(C)c2cn(CC#N)nc12 (single isomer, unassigned) [Compound A281b]
IC50 (DGKζ): 1120 nM
IC50 (DGKα): 11200 nM

CC[C@H]1CN(C(C)c2ccc(C(F)F)nc2)[C@H](CC)CN1c1cc(=O)n(C)c2cn(CC#N)nc12 (single isomer, unassigned) [Compound A351b]
IC50 (DGKζ): 3250 nM
IC50 (DGKα): 1190 nM

CC[C@H]1CN(C(C)c2nc(Cl)cn2CC)[C@H](CC)CN1c1cc(=O)n(C)c2cn(CC#N)nc12 (single isomer, unassigned) [Compound A191a]
IC50 (DGKζ): 6780 nM
IC50 (DGKα): > 10000 nM

CC[C@H]1CN(C(C)c2ccc(CN3CCOCC3)cc2)[C@H](CC)CN1c1cc(=O)n(C)c2cn(CC#N)nc12 (single isomer, unassigned) [Compound A383b]
IC50 (DGKζ): 4590 nM
IC50 (DGKα): 2790 nM

CC[C@H]1CN(C(C)c2cccc(C)c2C(F)(F)F)[C@H](CC)CN1c1cc(=O)n(C)c2cn(CC#N)nc12 (single isomer, unassigned) [Compound A110a]
IC50 (DGKζ): 151 nM
IC50 (DGKα): 1160 nM

COc1cc(F)ccc1C(C)N1C[C@H](C)N(c2cc(=O)n(C)c3cn(CC#N)nc23)C[C@H]1C (stereo partly drawn) [Compound A248, 2-(7-((2S,5R)-4-(1-(2-omethoxy-4-fluorophenyl)ethyl)-2,5-dimethylpiperazin-1-yl)-4-methyl-5-oxo-4,5-dihydro-2H-pyrazolo[4,3-b]pyridin-2-yl)acetonitrile]
IC50 (DGKζ): 579 nM

CC[C@H]1CN(C(C)c2ccc3nccnc3c2)[C@H](CC)CN1c1cc(=O)n(C(C)C)c2cn(CC#N)nc12 (single isomer, unassigned) [Compound A190b]
IC50 (DGKζ): > 10000 nM

CC[C@H]1CN(C(C)c2ccc(C3CC3)cc2F)[C@H](CC)CN1c1cc(=O)n(C)c2cn(CC#N)nc12 (single isomer, unassigned) [Compound A72b]
IC50 (DGKζ): 15 nM
IC50 (DGKα): 83 nM

CC(c1ccc2c(c1)OC(C)(C)CO2)N1C[C@H](C)N(c2cc(=O)n(C)c3cn(CC#N)nc23)C[C@H]1C (single isomer, unassigned) [Compound A46d]
IC50 (DGKζ): 9 nM
IC50 (DGKα): 11400 nM

CC[C@@H]1CN(c2cc(=O)n(C)c3cn(CC#N)nc23)[C@@H](C)CN1C(C)c1ccc(F)cc1C(F)(F)F (single isomer, unassigned) [Compound A218a]
IC50 (DGKζ): 166 nM
IC50 (DGKα): > 150000 nM

Cc1nc2ccc(C(C)N3C[C@H](C)N(c4cc(=O)n(C)c5cn(CC#N)nc45)C[C@H]3C)cn2n1 (mixture of isomers) [Compound A321]
IC50 (DGKζ): 4020 nM

CC[C@H]1CN(C(C)c2ncccc2OC)[C@H](CC)CN1c1cc(=O)n(C)c2cn(CC#N)nc12 (single isomer, unassigned) [Compound A92a]
IC50 (DGKζ): > 10000 nM
IC50 (DGKα): > 10000 nM

CC(c1ccc2c(c1)OCC(C)(C)O2)N1C[C@H](C)N(c2cc(=O)n(C)c3cn(CC#N)nc23)C[C@H]1C (single isomer, unassigned) [Compound A46e]
IC50 (DGKζ): 6160 nM
IC50 (DGKα): 26000 nM

COCc1cc(F)ccc1C(C)N1C[C@H](C)N(c2cc(=O)n(C)c3cn(CC#N)nc23)C[C@H]1C (single isomer, unassigned) [Compound A29a]
IC50 (DGKζ): 2220 nM
IC50 (DGKα): > 10000 nM

CCC1CN(c2c(C#N)c(=O)n(C)c3cn(CC#N)nc23)CCN1C(C)c1ccc2nccnc2c1 [Compound A169, 2-(cyanomethyl)-7-((2S,5R)-3-ethyl-4-(1-(quinoxalin-6-yl)ethyl)piperazin-1-yl)-4-methyl-5-oxo-4,5-dihydro-2H-pyrazolo[4,3-b]pyridine-6-carbonitrile]
IC50 (DGKζ): 701 nM
IC50 (DGKα): > 10000 nM

CC[C@H]1CN(C2CCOc3ccccc32)[C@H](CC)CN1c1cc(=O)n(C)c2cn(CC#N)nc12 (single isomer, unassigned) [Compound A150a]
IC50 (DGKζ): 2750 nM
IC50 (DGKα): 5830 nM

CC[C@H]1CN(C2CCCc3ccccc32)[C@H](CC)CN1c1cc(=O)n(C)c2cn(CC#N)nc12 (single isomer, unassigned) [Compound A146a]
IC50 (DGKζ): 283 nM
IC50 (DGKα): 440 nM

CC#CCn1cc2c(n1)c(N1C[C@@H](CC)N(C(C)c3ccc(F)cc3C(F)(F)F)C[C@@H]1CC)cc(=O)n2C (single isomer, unassigned) [Compound A238a]
IC50 (DGKζ): 2390 nM
IC50 (DGKα): > 10000 nM
